# Experiments:
# Experiment in all cases: cells
# COLO-829 = type: functional, cell-based, Homo sapiens; conditions: Homo sapiens, COLO-829
# Description: SANGER: Inhibition of human COLO-829 cell growth in a cell viability assay.
# D-263MG = type: functional, cell-based, Homo sapiens; conditions: Homo sapiens, D-263MG
# Description: SANGER: Inhibition of human D-263MG cell growth in a cell viability assay.
# DU-4475 = type: functional, cell-based, Homo sapiens; conditions: Homo sapiens, DU-4475
# Description: SANGER: Inhibition of human DU-4475 cell growth in a cell viability assay.
# ES5 = type: functional, cell-based, Homo sapiens; conditions: Homo sapiens, ES5;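 also: growth inhibition of human ES5 cells, read out by a cell viability assay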
# Description: SANGER: Inhibition of human ES5 cell growth in a cell viability assay.
# ES6 = type: functional, cell-based; conditions: Homo sapiens;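 also: growth inhibition of human ES6 cells, read out with a cell viability assay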
# Description: SANGER: Inhibition of human ES6 cell growth in a cell viability assay.
# ES7 = type: functional, cell-based, Homo sapiens; conditions: Homo sapiens, ES7;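 also: growth inhibition of cultured human ES7 cells, read out as cell viability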
# Description: SANGER: Inhibition of human ES7 cell growth in a cell viability assay.
# EW-3 = type: functional, cell-based, Homo sapiens; conditions: Homo sapiens, EW-3;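 also: cell viability assay read-out, IC50 reflects inhibition of growth of the EW-3 cells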
# Description: SANGER: Inhibition of human EW-3 cell growth in a cell viability assay.
# GOTO = type: functional, cell-based, Homo sapiens; conditions: Homo sapiens, GOTO;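 also: growth inhibition of GOTO cells, read out by a cell viability assay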
# Description: SANGER: Inhibition of human GOTO cell growth in a cell viability assay.
# HCC2218 = type: functional, cell-based, Homo sapiens; conditions: Homo sapiens, HCC2218;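 also: cell viability assay read-out, with IC50 given as the concentration that inhibits growth of the cell line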
# Description: SANGER: Inhibition of human HCC2218 cell growth in a cell viability assay.
# HEL = type: functional, cell-based, Homo sapiens; conditions: Homo sapiens, HEL;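 also: growth inhibition of HEL cells, read out with a cell viability assay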
# Description: SANGER: Inhibition of human HEL cell growth in a cell viability assay.
# IST-MES1 = type: functional, cell-based, Homo sapiens; conditions: Homo sapiens, IST-MES1;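 also: growth inhibition of IST-MES1 cells, measured with a cell viability assay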
# Description: SANGER: Inhibition of human IST-MES1 cell growth in a cell viability assay.
# K562 = type: functional, cell-based, Homo sapiens; conditions: Homo sapiens, K562
# Description: SANGER: Inhibition of human K-562 cell growth in a cell viability assay.
# KS-1 = type: functional, cell-based; conditions: Homo sapiens;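 also: growth inhibition of KS-1 cells, read out with a cell viability assay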
# Description: SANGER: Inhibition of human KS-1 cell growth in a cell viability assay.
# L-363 = type: functional, cell-based, Homo sapiens; conditions: Homo sapiens, L-363
# Description: SANGER: Inhibition of human L-363 cell growth in a cell viability assay.
# L-428 = type: functional, cell-based, Homo sapiens; conditions: Homo sapiens, L-428
# Description: SANGER: Inhibition of human L-428 cell growth in a cell viability assay.
# LS-1034 = type: functional, cell-based, Homo sapiens; conditions: Homo sapiens, LS-1034
# Description: SANGER: Inhibition of human LS-1034 cell growth in a cell viability assay.
# LU-139 = type: functional, cell-based, Homo sapiens; conditions: Homo sapiens, LU-139
# Description: SANGER: Inhibition of human LU-139 cell growth in a cell viability assay.
# MFM-223 = type: functional, cell-based, Homo sapiens; conditions: Homo sapiens, MFM-223
# Description: SANGER: Inhibition of human MFM-223 cell growth in a cell viability assay.
# MOLT-4 = type: functional, cell-based, Homo sapiens; conditions: Homo sapiens, MOLT-4;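 also: growth inhibition of MOLT-4 cells, determined with a cell viability readout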
# Description: SANGER: Inhibition of human MOLT-4 cell growth in a cell viability assay.
# MPP-89 = type: functional, cell-based, Homo sapiens; conditions: Homo sapiens, MPP-89;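 also: growth inhibition of human MPP-89 cells, read out with a cell viability assay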
# Description: SANGER: Inhibition of human MPP-89 cell growth in a cell viability assay.
# MV4-11 = type: functional, cell-based, Homo sapiens, MV-4-11; conditions: Homo sapiens, MV4-11;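 also: cell viability readout measuring growth inhibition of human MV-4-11 cells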
# Description: SANGER: Inhibition of human MV-4-11 cell growth in a cell viability assay.
# Mo = type: functional, cell-based, Homo sapiens; conditions: Homo sapiens, Mo
# Description: SANGER: Inhibition of human Mo-T cell growth in a cell viability assay.
# NB10 = type: functional, cell-based, Homo sapiens; conditions: Homo sapiens, NB10;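 also: growth inhibition of NB10 cells, read out by a cell viability assay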
# Description: SANGER: Inhibition of human NB10 cell growth in a cell viability assay.
# NB13 = type: functional, cell-based, Homo sapiens; conditions: Homo sapiens, NB13;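 also: cell viability readout measuring growth inhibition of human NB13 cells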
# Description: SANGER: Inhibition of human NB13 cell growth in a cell viability assay.
# NB69 = type: functional, cell-based, Homo sapiens; conditions: Homo sapiens, NB69;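 also: growth inhibition of NB69 cells, determined by a cell viability assay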
# Description: SANGER: Inhibition of human NB69 cell growth in a cell viability assay.
# NCI-H1304 = type: functional, cell-based, Homo sapiens; conditions: Homo sapiens, NCI-H1304;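 also: growth inhibition of the cancer cell line, measured in a cell viability assay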
# Description: SANGER: Inhibition of human NCI-H1304 cell growth in a cell viability assay.
# NCI-H1648 = type: functional, cell-based, Homo sapiens; conditions: Homo sapiens, NCI-H1648;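 also: cell viability assay measuring inhibition of NCI-H1648 cell growth, from the Sanger screening data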
# Description: SANGER: Inhibition of human NCI-H1648 cell growth in a cell viability assay.
# NCI-H1770 = type: functional, cell-based, Homo sapiens; conditions: Homo sapiens, NCI-H1770;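 also: growth inhibition of NCI-H1770 cells determined with a viability readout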
# Description: SANGER: Inhibition of human NCI-H1770 cell growth in a cell viability assay.
# NCI-H1838 = type: functional, cell-based, Homo sapiens; conditions: Homo sapiens, NCI-H1838;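 also: growth inhibition of NCI-H1838 cells, determined with a cell viability readout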
# Description: SANGER: Inhibition of human NCI-H1838 cell growth in a cell viability assay.
# NCI-H720 = type: functional, cell-based, Homo sapiens; conditions: Homo sapiens, NCI-H720;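 also: growth inhibition of human NCI-H720 cells determined by a cell viability assay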
# Description: SANGER: Inhibition of human NCI-H720 cell growth in a cell viability assay.
# NH-12 = type: functional, cell-based, Homo sapiens; conditions: Homo sapiens, NH-12;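 also: growth inhibition of NH-12 cells, read out with a cell viability assay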
# Description: SANGER: Inhibition of human NH-12 cell growth in a cell viability assay.
# NOS-1 = type: functional, cell-based, Homo sapiens; conditions: Homo sapiens, NOS-1;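 also: growth inhibition of the human NOS-1 cell line, read out with a cell viability assay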
# Description: SANGER: Inhibition of human NOS-1 cell growth in a cell viability assay.
# OS-RC-2 = type: functional, cell-based, Homo sapiens; conditions: Homo sapiens, OS-RC-2;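 also: growth inhibition of human OS-RC-2 cells, measured by a cell viability assay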
# Description: SANGER: Inhibition of human OS-RC-2 cell growth in a cell viability assay.
# SF-126 = type: functional, cell-based, Homo sapiens; conditions: Homo sapiens, SF-126;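 also: growth inhibition of human SF126 cells, read out with a cell viability assay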
# Description: SANGER: Inhibition of human SF126 cell growth in a cell viability assay.
# SF-539 = type: functional, cell-based, Homo sapiens; conditions: Homo sapiens, SF-539;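 also: Read-out is a cell viability assay, with IC50 reflecting inhibition of cell growth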
# Description: SANGER: Inhibition of human SF539 cell growth in a cell viability assay.
# SK-LMS-1 = type: functional, cell-based, Homo sapiens; conditions: Homo sapiens, SK-LMS-1;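 also: growth inhibition of human SK-LMS-1 cells, read out with a cell viability assay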
# Description: SANGER: Inhibition of human SK-LMS-1 cell growth in a cell viability assay.
# SK-MEL-2 = type: functional, cell-based, Homo sapiens; conditions: Homo sapiens, SK-MEL-2;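 also: growth inhibition of human SK-MEL-2 cells measured with a cell viability assay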
# Description: SANGER: Inhibition of human SK-MEL-2 cell growth in a cell viability assay.
# SK-NEP-1 = type: functional, cell-based, Homo sapiens; conditions: Homo sapiens, SK-NEP-1;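 also: growth inhibition of human SK-NEP-1 cells, read out by a cell viability assay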
# Description: SANGER: Inhibition of human SK-NEP-1 cell growth in a cell viability assay.
# SK-PN-DW = type: functional, cell-based, Homo sapiens; conditions: Homo sapiens, SK-PN-DW;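 also: growth inhibition measured with a viability assay on these cells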
# Description: SANGER: Inhibition of human SK-PN-DW cell growth in a cell viability assay.
# SW684 = type: functional, cell-based, Homo sapiens; conditions: Homo sapiens, SW684; read-out: IC50;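 also: growth inhibition of human SW684 cells, measured by a cell viability assay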
# Description: SANGER: Inhibition of human SW684 cell growth in a cell viability assay.
# TE-1 = type: functional, cell-based, Homo sapiens; conditions: Homo sapiens, TE-1
# Description: SANGER: Inhibition of human TE-1 cell growth in a cell viability assay.
# 697 = type: functional, cell-based, Homo sapiens; conditions: Homo sapiens
# Description: SANGER: Inhibition of human 697 cell growth in a cell viability assay.
# A704 = type: functional, cell-based; conditions: Homo sapiens;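 also: growth inhibition of human A704 cells, read out with a cell viability assay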
# Description: SANGER: Inhibition of human A704 cell growth in a cell viability assay.
# ATN-1 = type: functional, cell-based, Homo sapiens; conditions: Homo sapiens, ATN-1;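 also: growth inhibition of human ATN-1 cells, read out with a cell viability assay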
# Description: SANGER: Inhibition of human ATN-1 cell growth in a cell viability assay.
# BB49-HNC = type: functional, cell-based, Homo sapiens; conditions: Homo sapiens, BB49-HNC;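 also: cell viability assay read-out, reported as inhibition of BB49-HNC cell growth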
# Description: SANGER: Inhibition of human BB49-HNC cell growth in a cell viability assay.
# TE-12 = type: functional, cell-based, Homo sapiens; conditions: Homo sapiens, TE-12;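 also: growth inhibition of TE-12 cells, read out by a cell viability assay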
# Description: SANGER: Inhibition of human TE-12 cell growth in a cell viability assay.
# TE-6 = type: functional, cell-based, Homo sapiens; conditions: Homo sapiens, TE-6;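 also: growth inhibition of TE-6 cells, read out with a cell viability assay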
# Description: SANGER: Inhibition of human TE-6 cell growth in a cell viability assay.
# TK-10 = type: functional, cell-based, Homo sapiens; conditions: Homo sapiens, TK-10;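 also: growth inhibition of TK-10 cells, read out in a cell viability assay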
# Description: SANGER: Inhibition of human TK10 cell growth in a cell viability assay.
# CGTH-W-1 = type: functional, cell-based, Homo sapiens; conditions: Homo sapiens, CGTH-W-1;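 also: growth inhibition of human CGTH-W-1 cells measured by cell viability assay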
# Description: SANGER: Inhibition of human CGTH-W-1 cell growth in a cell viability assay.
smiles,measurement,setting,value
NC(=O)c1cccc(-c2cc(Nc3ccc(OC(F)(F)F)cc3)ncn2)c1,IC50,COLO-829,> 1280 nM
same,IC50,D-263MG,> 1280 nM
same,IC50,DU-4475,> 1280 nM
same,IC50,ES5,> 1280 nM
same,IC50,ES6,> 1280 nM
same,IC50,ES7,> 1280 nM
same,IC50,EW-3,> 1280 nM
same,IC50,GOTO,> 1280 nM
same,IC50,HCC2218,> 1280 nM
same,IC50,HEL,> 1280 nM
same,IC50,IST-MES1,> 1280 nM
same,IC50,K562,361 nM
same,IC50,KS-1,> 1280 nM
same,IC50,L-363,> 1280 nM
same,IC50,L-428,> 1280 nM
same,IC50,LS-1034,> 1280 nM
same,IC50,LU-139,> 1280 nM
same,IC50,MFM-223,> 1280 nM
same,IC50,MOLT-4,> 1280 nM
same,IC50,MPP-89,> 1280 nM
same,IC50,MV4-11,> 1280 nM
same,IC50,Mo,> 1280 nM
same,IC50,NB10,> 1280 nM
same,IC50,NB13,> 1280 nM
same,IC50,NB69,> 1280 nM
same,IC50,NCI-H1304,> 1280 nM
same,IC50,NCI-H1648,> 1280 nM
same,IC50,NCI-H1770,> 1280 nM
same,IC50,NCI-H1838,> 1280 nM
same,IC50,NCI-H720,> 1280 nM
same,IC50,NH-12,> 1280 nM
same,IC50,NOS-1,571 nM
same,IC50,OS-RC-2,> 1280 nM
same,IC50,SF-126,> 1280 nM
same,IC50,SF-539,> 1280 nM
same,IC50,SK-LMS-1,> 1280 nM
same,IC50,SK-MEL-2,> 1280 nM
same,IC50,SK-NEP-1,> 1280 nM
same,IC50,SK-PN-DW,> 1280 nM
same,IC50,SW684,> 1280 nM
same,IC50,TE-1,> 1280 nM
same,IC50,697,> 1280 nM
same,IC50,A704,> 1280 nM
same,IC50,ATN-1,> 1280 nM
same,IC50,BB49-HNC,> 1280 nM
same,IC50,TE-12,> 1280 nM
same,IC50,TE-6,> 1280 nM
same,IC50,TK-10,> 1280 nM
same,IC50,CGTH-W-1,> 1280 nM

# From ChEMBL document CHEMBL1201861, “Genomics of Drug Sensitity in Cancer screening data, Wellcome Trust Sanger Institute”
